Source: US12371454B2, “Cyclic peptide compound having Kras inhibitory action” (priority 2019, dated 2025)
Starred links: 1 amine or outer side, 2 acyl side, 3 side chain; linkers in the order of their positions; H or OH if unused. Positions of bridges follow the written chain, without caps; N, C: chain ends. Non-standard residues stand in square brackets, D forms with d. Residues, ends and D or L forms follow the SMILES beside them. *: point of attachment. hPhe(3-Cl-4-CF3) = N[C@@H](CCc1ccc(C(F)(F)F)c(Cl)c1)C(=O)O; NMePhe(4-CF3) = CN[C@@H](Cc1ccc(C(F)(F)F)cc1)C(=O)O; X23 = CN([C@@H](Cc1ccccc1OC(F)(F)F)C(=O)[*:2])[*:1]; X29 = N#Cc1cc(CC[C@H](N[*:1])C(=O)[*:2])cc(Cl)c1Cl; NMedβ3hAla = C[C@H](CC(=O)[*:2])N(C)[*:1]; NMeGly(cPent) = CN[C@H](C(=O)O)C1CCCC1; NMehPhe = CN[C@@H](CCc1ccccc1)C(=O)O; NMeCha = CN[C@@H](CC1CCCCC1)C(=O)O; NMeChg = CN[C@H](C(=O)O)C1CCCCC1; N(CH2CH2)2CF2 = FC1(F)CCN(*)CC1; NMeD = CN[C@@H](CC(=O)O)C(=O)O; NMeL = CN[C@@H](CC(C)C)C(=O)O; Chg = N[C@H](C(=O)O)C1CCCCC1; NMeV = CN[C@H](C(=O)O)C(C)C; d(β3hA) = C[C@@H](N)CC(=O)O; Azetidin(1-yl) = C1CN(*)C1; NMeAbu = CC[C@H](NC)C(=O)O; NMeA = CN[C@@H](C)C(=O)O; Piperidide = C1CCN(*)CC1; Pyrrolidide = C1CCN(*)C1; Ac5c = NC1(C(=O)O)CCCC1; Aze = O=C(O)[C@@H]1CCN1; Sar = CNCC(=O)O

Key:
[1] = target: T1, Kras and SOS1 (biotin-tagged human Kras loaded with GDP, His-tagged human SOS1) (Homo sapiens, UniProt P01116, G12D); test: Protein-protein interaction inhibition between Kras and SOS1 (KrasGl2D-SOS PPI) using AlphaScreen; format: binding; conditions: AlphaScreen; biotin-tagged human Kras loaded with GDP, His-tagged human SOS1; read-out: KRAS G12D-SOS PPI IC50
T1 construct: made in house; host or cells: E. coli (stated for Kras only)
T1 sequence (P01116 1-188 isoform P01116-2 G12D): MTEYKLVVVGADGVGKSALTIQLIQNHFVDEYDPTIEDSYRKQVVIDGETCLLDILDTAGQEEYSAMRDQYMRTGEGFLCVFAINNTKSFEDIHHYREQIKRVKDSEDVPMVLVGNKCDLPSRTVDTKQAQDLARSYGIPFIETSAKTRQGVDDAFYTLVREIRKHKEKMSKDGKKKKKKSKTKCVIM
In short: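 Donor beads (nickel) hold His-SOS1; acceptor beads (streptavidin) hold biotin-Kras bound to GDP. Signal measured at 520-620 nm following 680 nm excitation.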

[2] = test system: Human pancreatic cancer cell line AsPC-1; test: Measurement of AsPC-1 cell growth inhibition (AsPC-1 CGI); format: cell-based; conditions: 96 h
In short: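 AsPC-1 cells in 15% FBS RPMI-1640 were exposed to test compound for 96 hours at 37° C, with CellTiter-Glo as endpoint.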

SMILES	IC50 [1] [nM]	IC50 [2] [nM]
CC[C@H](C)[C@@H]1NC(=O)[C@H](CC(C)C)N(C)C(=O)C[C@@H](C(=O)N2CCC2)N(C)C(=O)[C@H](C2CCCCC2)N(C)C(=O)C2(CCCC2)NC(=O)[C@@H]2CCCN2C(=O)[C@H](CCc2ccc(C(F)(F)F)c(Cl)c2)NC(=O)CN(C)C(=O)[C@H](CC2CCCCC2)N(C)C(=O)CN(C)C(=O)CN(C)C1=O [Compound 437] ([NMeL]I[Sar][Sar][NMeCha][Sar][hPhe(3-Cl-4-CF3)]P[Ac5c][NMeChg][NMeD]-{Azetidin(1-yl)}; lactam N-11)	0.47	50 to 100
CC(C)C[C@H]1C(=O)N[C@@H](C2CCCCC2)C(=O)N(C)CC(=O)N(C)CC(=O)N(C)[C@@H](CC2CCCCC2)C(=O)N(C)CC(=O)N[C@@H](CCc2ccc(C(F)(F)F)c(Cl)c2)C(=O)N2CCC[C@H]2C(=O)NC2(CCCC2)C(=O)N(C)[C@@H](C2CCCCC2)C(=O)N(C)[C@H](C(=O)N2CCCCC2)CC(=O)N1C [Compound 552] ([NMeL][Chg][Sar][Sar][NMeCha][Sar][hPhe(3-Cl-4-CF3)]P[Ac5c][NMeChg][NMeD]-Piperidide; lactam N-11)	0.63	100 to 500
CC[C@H](C)[C@@H]1NC(=O)[C@H](CC(C)C)N(C)C(=O)C[C@@H](C(=O)N(C)C)N(C)C(=O)[C@H](C2CCCC2)N(C)C(=O)C2(CCCC2)NC(=O)[C@H](CC(=O)N2CCC(F)(F)CC2)N(C)C(=O)[C@H](CCc2ccc(C(F)(F)F)c(Cl)c2)NC(=O)CN(C)C(=O)[C@H](CC2CCCCC2)N(C)C(=O)[C@@H]2CCN2C(=O)[C@H](C)N(C)C1=O [Compound 1955] ([NMeL]I[NMeA][Aze][NMeCha][Sar][hPhe(3-Cl-4-CF3)][NMeD](N(CH2CH2)2CF2)[Ac5c][NMeGly(cPent)][NMeD]-NMe2; lactam N-11)	1.5	100 to 500
CC[C@H](C)[C@@H]1NC(=O)[C@H](CC(C)C)N(C)C(=O)C[C@@H](C(=O)N2CCCCC2)N(C)C(=O)[C@H](C(C)C)N(C)C(=O)C2(CCCC2)NC(=O)[C@@H]2CCCN2C(=O)[C@H](CCc2ccc(C(F)(F)F)c(Cl)c2)NC(=O)CN(C)C(=O)[C@H](CCc2ccccc2)N(C)C(=O)CN(C)C(=O)CN(C)C1=O [Compound 1608] ([NMeL]I[Sar][Sar][NMehPhe][Sar][hPhe(3-Cl-4-CF3)]P[Ac5c][NMeV][NMeD]-Piperidide; lactam N-11)	5.8	100 to 500
CC[C@H](C)[C@@H]1NC(=O)[C@H](CC)N(C)C(=O)C[C@@H](C(=O)N2CCCC2)N(C)C(=O)[C@H](C2CCCCC2)N(C)C(=O)C2(CCCC2)NC(=O)[C@@H]2CCCN2C(=O)[C@H](CCc2ccc(C(F)(F)F)c(Cl)c2)NC(=O)CN(C)C(=O)[C@H](Cc2ccc(C(F)(F)F)cc2)N(C)C(=O)CN(C)C(=O)CN(C)C1=O [Compound 1890] ([NMeAbu]I[Sar][Sar][NMePhe(4-CF3)][Sar][hPhe(3-Cl-4-CF3)]P[Ac5c][NMeChg][NMeD]-Pyrrolidide; lactam N-11)	0.55	20 to 50
CC[C@H](C)[C@@H]1NC(=O)[C@H](C)N(C)C(=O)C[C@@H](C(=O)N2CCCCC2)N(C)C(=O)[C@H](C2CCCCC2)N(C)C(=O)C2(CCCC2)NC(=O)[C@@H]2CCCN2C(=O)[C@H](CCc2cc(Cl)c(Cl)c(C#N)c2)NC(=O)CN(C)C(=O)[C@H](CC2CCCCC2)N(C)C(=O)CN(C)C(=O)CN(C)C1=O [Compound 2075] ([NMeA]I[Sar][Sar][NMeCha][Sar][X29]P[Ac5c][NMeChg][NMeD]-Piperidide; lactam N-11)	1.1	> 500
CC[C@H](C)[C@@H]1NC(=O)[C@H](CC(C)C)N(C)C(=O)C[C@@H](C)N(C)C(=O)[C@H](C(C)C)N(C)C(=O)C2(CCCC2)NC(=O)[C@@H]2CCCN2C(=O)[C@H](CCc2ccc(C(F)(F)F)c(Cl)c2)NC(=O)CN(C)C(=O)[C@H](Cc2ccccc2OC(F)(F)F)N(C)C(=O)CN(C)C(=O)CN(C)C1=O [Compound 1633] (cyclo([Ac5c][NMeV][NMedβ3hAla][NMeL]I[Sar][Sar][X23][Sar][hPhe(3-Cl-4-CF3)]P))	50	100 to 500
CC[C@H](C)[C@@H]1NC(=O)[C@H](CC)N(C)C(=O)C[C@@H](C)NC(=O)[C@H](C(C)C)N(C)C(=O)C2(CCCC2)NC(=O)[C@@H]2CCCN2C(=O)[C@H](CCc2ccc(C(F)(F)F)c(Cl)c2)NC(=O)CN(C)C(=O)[C@H](CC2CCCCC2)N(C)C(=O)[C@@H]2CCN2C(=O)[C@H](C)N(C)C1=O [Compound 1607] (cyclo([Ac5c][NMeV][d(β3hA)][NMeAbu]I[NMeA][Aze][NMeCha][Sar][hPhe(3-Cl-4-CF3)]P))	28	100 to 500
CC[C@H](C)[C@@H]1NC(=O)[C@H](CC(C)C)N(C)C(=O)C[C@@H](C(=O)N2CCCCC2)N(C)C(=O)[C@H](C(C)C)N(C)C(=O)C2(CCCC2)NC(=O)[C@@H]2CCCN2C(=O)[C@H](CCc2ccc(C(F)(F)F)c(Cl)c2)NC(=O)CN(C)C(=O)[C@H](Cc2ccccc2OC(F)(F)F)N(C)C(=O)CN(C)C(=O)CN(C)C1=O [Compound 1641] ([NMeL]I[Sar][Sar][X23][Sar][hPhe(3-Cl-4-CF3)]P[Ac5c][NMeV][NMeD]-Piperidide; lactam N-11)	8.3	100 to 500
